Results as given in patent publication US9376470B2, “Polypeptide having angiogenesis-inducing activity and antibacterial activity, and use thereof for medical purposes” (FunPep Inc., priority 2008, dated 2016).
Where two headings read alike, the source gives them in different places. Peptide text beside a SMILES is read from it.

What was measured:
[1] = tested on: Enterobacteria (1): Enterobacter cloacae JCM 1232; test: Antibacterial activity, ATP assay (BacTiter-Glo); type: cell-based; settings: ATP assay concentration: peptides 10, TOB 4.0, CPFX 1.0, OX 4.0, MEPM 8.0 μg/ml
Description: That is, using BacTiter-Glo Microbial Cell Viability Assay kit available from PROMEGA, the antibacterial activity of the peptides was evaluated from the viability of bacteria. […] With respect to the strains, Staphylococcus aureus ATCC29213 (S. aureus ATCC29213) as Gram-positive bacteria, or, alternatively, Pseudomonas aeruginosa (P. aeruginosa ATCC27853) as Gram-negative bacteria, was used. The bacteria were cultured in media for 3 to 4 hours, and thereafter absorbances at A600 were measured. Bacterial suspensions were diluted with Mueller-Hinton broth (MHB) according to McFarland #0.5. Each strain was added so as to attain about 0.5−1×10^5 CFU/mL (final concentration) in terms of Escherichia coli. […] A solution to which the peptides were not added was considered as a negative control, and a solution to which tobramycin (TOB) was added was considered as a positive control. […] Relative values were calculated by comparison with the negative control, and these values were regarded as the viability. […] ATP (%) of the antibacterial activity was measured in the same manner as mentioned above, and the “minimum inhibitory concentration (MIC)” was measured as follows. MIC is the lowest concentration of an agent that may inhibit the growth of a bacterium. MIC is used as a parameter for the efficacy of an antibacterial agent, for the strength of bacterial sensitivity, or the like. The bacteria can grow (proliferate) when the concentration is not higher than MIC, and cannot grow when the concentration is higher than MIC. […] (CLSI), but, in this Example, its measurement was carried out by a broth microdilution method in accordance with “M100-S17/M7-A7” (Performance Standards for Antimicrobial Susceptibility Testing; Seventeenth Informational Supplement, Vol. 27 No. 1) published by CLSI on January, 2007. That is, sensitivity test of agents was carried out using a microtiter plate or test tubes. With respect to each strain, Escherichia coli: ATCC 25922 (Escherichia coli ATCC 25922), Pseudomonas aeruginosa: ATCC 27853 (Pseudomonas aeruginosa ATCC 27853), Staphylococcus aureus: ATCC29213 (Staphylococcus aureus ATCC29213), Klebsiella pneumoniae: JCM 1662 (Klebsiella pneumoniae JCM 1662), enterobacteria (1): JCM 1232 (Enterobacter cloacae JCM 1232), enterobacteria (2): JCM 1235 (Enterobacter aerogenes JCM 1235), and Staphylococcus epidermidis: JCM 2414 (Staphylococcus epidermidis JCM 2414), were used. […] As the concentrations of the agents in ATP assay, the concentrations as described in the Tables were used.

[2] = tested on: human vascular endothelial cells and fibroblast cells (co-culture); test: Lumen formation with angiogenesis kit KZ-1000 (section 7); type: cell-based; settings: for ability to form lumina: 0.5, 2.5 and 10 μg/mL; for The Area of Lumina (relative value, negative control as 100) / The Length of Lumina (relative value, negative control as 100): day 11
Description: Using an angiogenesis kit available from KURABO […] LTD. (Product No.: KZ-1000), lumen formation by the polypeptides was evaluated. Vascular endothelial growth factor A (VEGF-A) as a positive control, and polypeptide-free, unstimulated group as a negative control, were used.
Using a special medium for angiogenesis which was attached to the kit, each polypeptide was prepared such that the concentration thereof was respectively 0.5, 2.5 and 10 μg/mL. To a 24-well plate in which cells were plated (the cells were those obtained by co-culturing human vascular endothelial cells and fibroblast cells at an optimum concentration) which was attached to the kit, the special medium for angiogenesis containing each polypeptide was added, and the cells were cultured at 37° C. under 5% CO2. The medium was replaced with a medium containing the same additive on day 4, day 7 and day 9 of culture. On day 11 from the beginning of the culture, staining was performed using a kit for staining lumina (for CD31 antibody staining) according to the following procedure.
The media were removed, and washing was performed with Dulbecco's phosphate buffered saline (PBS(−)). Thereafter, ice-cooled 70% ethanol was added to the plate, and the cells were fixed. Each well was washed with a blocking solution (Dulbecco's phosphate buffered saline (PBS(−)) containing 1% BSA). To each well, 0.5 mL of the primary antibody for CD31 staining (mouse anti-human CD31 antibody) 4000-fold diluted with the blocking solution was added, and then the plate was incubated for 60 minutes at 37° C. After the completion of the incubation, each well was washed totally 3 times with 1 mL of the blocking solution. Then, 0.5 mL of the secondary antibody solution (goat anti-mouse IgG/alkaline phosphatase conjugate) 500-fold diluted with the blocking solution was added to each well. The plate was incubated for 60 minutes at 37° C., and thereafter each well was washed 3 times with 1 mL of distilled water. During that period, 2 tablets of BCIP/NBT were dissolved into distilled water, and the obtained solution was filtered through a filter having a pore size of […] to prepare a substrate solution. To each well, 0.5 mL of the prepared BCIP/NBT substrate solution was added, and the plate was incubated at 37° C. until the lumina turned to deep purple (typically for 5-10 minutes). After the completion of the incubation, each well was washed 3 times with 1 mL of distilled water. After washing, the washing solution was removed by aspiration, and the plate was left to stand and dry naturally. After drying, photographs of each well were taken under a microscope.
Each of the obtained images was quantified using an angiogenesis quantification software. The area and length of formed lumina observed in each visual field were measured on the basis of the scale of an angiogenesis quantification software available from KURABO […] LTD. (angiogenesis quantification software Ver 1.0), and evaluated on the basis of the ratio of the area or length of polypeptide-containing groups relative to the area or length of the negative control group.

in vitro = in vitro ADME, rat; settings: for half-life: rat serum, 37° C.; for remaining at 10 min, 500 μg/mL / remaining at 1 h, 500 μg/mL / remaining at 0.5 h, 500 μg/mL: rat, serum
Description: (§1) Then, the stability of five polypeptides SR-1 to 5 in serum was evaluated.
(§2) In human serum (purchased from KAC Co., Ltd.), or in rat serum obtained by collecting blood from a rat, then leaving the collected blood to stand at room temperature followed by centrifugation, each of the peptides was dissolved so as to attain a final concentration of 500 μg/mL, and the obtained solutions were left to stand at 37° C. After leaving to stand for 10 min or 30 min or 60 min, these solutions were subjected to HPLC chromatogram analysis to detect peaks of the decomposition products, and calculate the ratio of the concentration of the peptides which remained in the solutions relative to the starting concentration. In addition, the half-lives of the peptides in serum were also calculated.
(§3) HPLC chromatogram analysis conditions are as follows.

[3] = type: in vitro ADME; settings: human serum, 37° C.
Description: as §1, §2, §3

Compound	ATP (%) mean, Enterobacteria (1) [1]	ability to form lumina [2]	The Area of Lumina (relative value, negative control as 100) ([2]; polypeptide 0.5 μg/mL)	The Length of Lumina (relative value, negative control as 100) ([2]; polypeptide 0.5 μg/mL)	The Area of Lumina (relative value, negative control as 100) ([2]; polypeptide 10 μg/mL)	The Length of Lumina (relative value, negative control as 100) ([2]; polypeptide 10 μg/mL)	decomposition in rat serum (in vitro)	half-life (in vitro)	remaining at 10 min, 500 μg/mL (in vitro)	remaining at 1 h, 500 μg/mL (in vitro)	half-life [3]	remaining at 0.5 h, 500 μg/mL (in vitro)
CC(C)C[C@H](NC(=O)[C@H](CCCCN)NC(=O)[C@H](CCCNC(=N)N)NC(=O)[C@H](CCCCN)NC(=O)[C@H](CC(C)C)NC(=O)[C@H](CCCNC(=N)N)NC(=O)[C@H](CCCCN)NC(=O)[C@H](CCCNC(=N)N)NC(=O)[C@H](CC(C)C)NC(=O)[C@H](CCCNC(=N)N)NC(=O)[C@H](CCCNC(=N)N)NC(=O)[C@H](CCCCN)NC(=O)[C@H](CC(C)C)NC(=O)[C@H](CCCNC(=N)N)NC(=O)[C@H](Cc1c[nH]cn1)NC(=O)[C@H](CC(C)C)NC(=O)[C@H](Cc1ccccc1)NC(=O)[C@H](CCCNC(=N)N)NC(=O)[C@H](CC(C)C)NC(=O)[C@@H](N)CCC(=O)O)C(=O)N[C@@H](CCCNC(=N)N)C(N)=O [SR-2] (H-ELRFLHRLKRRLRKRLKRKLR-NH2; N-terminus assumed)	3.0%	high ability to form lumina	110.7	108.9	138.0	129.9	35-55%	75 min	69%	51.7%	12 min	–
Cc1onc(-c2ccccc2)c1C(=O)N[C@@H]1C(=O)N2[C@@H]1SC(C)(C)[C@@H]2C(=O)O [OX, oxacillin, reference compound]	97.7%	–	–	–	–	–	–	–	–	–	–	–
C[C@@H](O)[C@H]1C(=O)N2C(C(=O)O)=C(S[C@@H]3CN[C@H](C(=O)N(C)C)C3)[C@H](C)[C@H]12 [MEPM, meropenem, reference compound]	5.6%	–	–	–	–	–	–	–	–	–	–	–
CSCC[C@H](NC(=O)[C@H](CCCNC(=N)N)NC(=O)[C@@H](N)CCCCN)C(=O)N[C@@H](CCCNC(=N)N)C(=O)N[C@@H](CCCCN)C(=O)N[C@@H](CCCNC(=N)N)C(=O)N[C@@H](CC(C)C)C(=O)N[C@@H](CCCCN)C(=O)N[C@@H](CCCNC(=N)N)C(=O)N[C@@H](CCCCN)C(=O)N[C@@H](CC(C)C)C(=O)N[C@@H](CCCNC(=N)N)C(=O)N[C@@H](CC(C)C)C(=O)N[C@@H](Cc1c[nH]c2ccccc12)C(=O)N[C@@H](Cc1c[nH]cn1)C(=O)N[C@@H](CCCNC(=N)N)C(=O)N[C@@H](CCCCN)C(=O)N[C@@H](CCCNC(=N)N)C(=O)N[C@@H](Cc1ccc(O)cc1)C(=O)N[C@@H](CCCCN)C(=O)O [SR-5] (H-KRMRKRLKRKLRLWHRKRYK-OH; N-terminus assumed)	3.4%	–	103.4	106.2	107.7	106.8	completely decomposed	4 min	–	0%	21 min	0%
NC[C@H]1O[C@H](O[C@H]2[C@H](O)[C@@H](O[C@H]3O[C@H](CO)[C@@H](O)[C@H](N)[C@H]3O)[C@H](N)C[C@@H]2N)[C@H](N)C[C@@H]1O [TOB, tobramycin, reference compound]	3.0%	–	–	–	–	–	–	–	–	–	–	–
CSCC[C@H](NC(=O)[C@H](CCCNC(=N)N)NC(=O)[C@H](CCCCN)NC(=O)[C@H](CC(C)C)NC(=O)[C@H](CCCNC(=N)N)NC(=O)[C@H](Cc1c[nH]cn1)NC(=O)[C@H](CC(C)C)NC(=O)[C@H](Cc1ccccc1)NC(=O)[C@H](CCCNC(=N)N)NC(=O)[C@H](CC(C)C)NC(=O)[C@@H](N)CCC(=O)O)C(=O)N[C@@H](CCCNC(=N)N)C(=O)N[C@@H](CCCCN)C(=O)N[C@@H](CCCNC(=N)N)C(=O)N[C@@H](CC(C)C)C(=O)N[C@@H](CCCCN)C(=O)N[C@@H](CCCNC(=N)N)C(=O)N[C@@H](CCCCN)C(=O)N[C@@H](CC(C)C)C(=O)N[C@@H](CCCNC(=N)N)C(N)=O [SR-3] (H-ELRFLHRLKRMRKRLKRKLR-NH2; N-terminus assumed)	4.3%	high ability to form lumina	100.8	101.9	118.0	122.6	35-55%	67 min	53%	44.4%	15 min	–
CC[C@H](C)[C@H](NC(=O)[C@H](CC(C)C)NC(=O)[C@@H](N)CCCCN)C(=O)N[C@@H](Cc1ccccc1)C(=O)N[C@@H](CC(C)C)C(=O)N[C@@H](Cc1c[nH]cn1)C(=O)N[C@@H](CCCNC(=N)N)C(=O)N[C@@H](CC(C)C)C(=O)N[C@@H](CCCCN)C(=O)N[C@@H](CCCNC(=N)N)C(=O)N[C@@H](CCSC)C(=O)N[C@@H](CCCNC(=N)N)C(=O)N[C@@H](CCCCN)C(=O)N[C@@H](CCCNC(=N)N)C(=O)N[C@@H](CC(C)C)C(=O)N[C@@H](CCCCN)C(=O)N[C@@H](CCCNC(=N)N)C(=O)N[C@@H](CCCCN)C(=O)N[C@@H](CC(C)C)C(=O)N[C@@H](CCCNC(=N)N)C(N)=O [SR-4] (H-KLIFLHRLKRMRKRLKRKLR-NH2; N-terminus assumed)	4.9%	–	90.5	97.0	96.2	96.4	35-55%	95 min	–	64.5%	16 min	95%
